Measurements published in patent US4105785A, “Anti-depressive 2-methyl-4-[(3'-dimethylamino)propylidine]-9,10-dihydrobenzo [4,5]cyclohepta[1,2b]furan compounds” (priority 1976, dated 1978).

Key:
[1] = system: reserpine-induced hypothermia; test: Antagonism to reserpine-induced hypothermia; assay type: in vivo; conditions: mouse; for HYPOTHERMIA (Reserpine), maximal rise in temperature: reserpine 1 mg/kg IV
Procedure: (2) Antagonism to reserpine-induced hypothermia Administration of reserpine to the mouse (1 mg/kg IV) results in hypothermia which may be antagonized by certain anti-depressants. The values given in table I correspond, for the doses given, to the maximal rise in temperature. [Boissier et al., Therapie 1966, XXI, 109-117]

[2] = system: catalepsy induced by prochlorperazine; test: antagonism to catalepsy induced by prochlorperazine in the rat; assay type: in vivo
Excerpt: (3) antagonism to catalepsy induced by prochlorperazine in the rat. Injection of prochlorperazine in the rat induces a cataleptic state which is more or less inhibited by antidepressants. The values given in table I show percentages of inhibition. [Boissier J. R. and Simon P., Therapie (1963), 18, 1257-77]

[3] = system: stereotypies induced by amphetamine; test: Potentialization of stereotypies induced by amphetamine in the rat; assay type: in vivo; conditions: D-amphetamine 4 mg/kg IP
Procedure: (4) Potentialization of stereotypies induced by amphetamine in the rat.
The administration of D-amphetamine to the rat (4 mg/kg IP) results in stereotyped behaviour which can be potentialized or antogonized by various products.
The values given in table I show the percentage of potentialization. [Lapin I. P. and Schelkunov E. L. (1963) Second International Pharmacological Meeting 1, 205 Pergamon Press].

[4] = system: symptoms of trembling induced by oxotremorine; test: Antioxotremoric action in the mouse; assay type: in vivo; conditions: 100 mg/kg PO, oxotremorine 2 mg/kg IP
[5] = system: heat stimulus (hot plate); test: Analgesic activity, hot plate method; assay type: in vivo; conditions: mouse; for ED50: PO, 50% of animals exposed to heat stimulus longer than 5 seconds, read-out: ANALGESIA ED 50
Procedure: (7) Analgesic activity This was assessed on the mouse by the hot plate method. […] [Eddy N. B. and Leimbach D. J., Pharmacol. Exp. Ther., 107, 385-393 (1953)]

[6] = acute toxicity by the oral way in the mouse; conditions: in vivo; for LD50: PO; for mortality: 600 mg/kg PO, read-out: acute toxicity, deaths
Procedure: (1) acute toxicity by the oral way in the mouse
This was evaluated in the mouse by the method of Behrens and Karber [Arch. Exp. Path. Pharm. 177, 379 (1935)]

spontaneous motility = test: Spontaneous motility in the mouse; assay type: in vivo; conditions: 1 hour after administration, 10 minutes
Procedure: (6) Spontaneous motility in the mouse One hour after the administration of the product to be studied, the animals are placed by groups of two in a circular corridor swept by beams of infrared light making it possible to count their movements from one place to another. The number of movements from one place to another is counted for 10 minutes and compared with the score obtained by a control group.

SMILES	HYPOTHERMIA (Reserpine), maximal rise in temperature ([1]; 50 mg/kg PO)	CATALEPSY (Prochlorperazine), percentage of inhibition ([2]; 20 mg/kg IP)	STEREOTYPIES (Amphetamine), percentage of potentialization ([3]; 20 mg/kg PO)	ANTI-OXOTREMORIC ACTION, percentage of inhibition of trembling symptoms [4] [%]	ED50 [5] [mg/kg]	LD50 [6] [mg/kg]	SPONTANEOUS MOTILITY, percentage of decrease in number of movements (spontaneous motility; 80 mg/kg PO) [%]	HYPOTHERMIA (Reserpine), maximal rise in temperature ([1]; 25 mg/kg PO)	STEREOTYPIES (Amphetamine), percentage of potentialization ([3]; 5 mg/kg IP)	mortality [6] [%]	SPONTANEOUS MOTILITY, percentage of decrease in number of movements (spontaneous motility; 100 mg/kg PO) [%]	HYPOTHERMIA (Reserpine), maximal rise in temperature ([1]; 12.5 mg/kg PO)	action on reserpine-induced hypothermy (in words) [1]	CATALEPSY (Prochlorperazine), percentage of inhibition ([2]; 40 mg/kg IP) [%]	ANALGESIA (result in words) [5]
CN(C)CCC=C1c2ccccc2CCc2ccccc21 [AMITRIPTYLINE, reference compound]	+2.5 °C	-33,3%	+65%	-100	16	250	80	–	–	–	–	–	–	–	–
Cc1ccc2c(c1)C(=CCCN(C)C)c1cc(C)oc1CC2 [compound no. 2, dimethyl-2,6 [(dimethylamino-3')]-propylidene-4 dihydro-9,10 benzo [4,5] cyclohepta [1,2-b] furan]	–	-44.4%	–	-30	47	–	–	+0.6 °C	+141%	10	84.4	–	–	–	–
Cc1ccc2c(c1)CCc1oc(C)cc1C2=CCCN(C)C [compound no. 1, dimethyl-2,7 [(dimethylamino-3')propylidene]-4 dihydro-9,10 benzo-[4,5] cyclohepta [1,2-b] furan]	–	-26.1%	–	-35	48	–	–	–	+105%	10	95.3	+1 °C	–	–	–
Cc1cc2c(o1)CCc1ccccc1C2=CCCN(C)C [compound no. 3, methyl-2 [(dimethylamino-3')-propylidene]-4 dihydro-9,10 benzo-[4,5] cyclohepta [1,2-b] furan]	+3 °C	–	–	-75	–	300	–	–	+9,2%	–	84	–	significant action	-33.3	non specific
